Results published in patent US20070254882A1, “Sulfamide Derivatives and Pharmaceutical Composition for Upregulation of Lipid Metabolism Comprising Same” (CRYSTAL GENOMICS, INC., priority 2004, published 2007).

Columns and labels:
human PPAR α [1] = molecular target: T1, human PPAR α (Homo sapiens, UniProt Q07869); test: Exogeneous PPAR α agonist assay (GAL4 DNA binding domain/PPAR α ligand binding domain, luciferase) in 293T cells; type: cell-based; set-up: scale not given here; settings: 25 μM compound, 48 hours, luciferase activity increase relative to the control
T1 construct: expressed in transfected cells; host or cells: HepG2 (ATCC HB-8065) or 293T cells (ATCC CRL-1573)
T1 sequence (Q07869 239-466 limits assumed): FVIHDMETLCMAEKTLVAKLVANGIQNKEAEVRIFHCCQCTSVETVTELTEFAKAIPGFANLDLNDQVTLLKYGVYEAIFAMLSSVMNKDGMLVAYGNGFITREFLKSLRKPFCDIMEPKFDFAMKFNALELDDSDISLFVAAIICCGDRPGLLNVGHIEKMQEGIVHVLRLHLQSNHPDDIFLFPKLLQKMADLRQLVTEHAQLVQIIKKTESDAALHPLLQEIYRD
Experimental: (§1) Step 1) Exogeneous PPAR α Agonist Assay
(§2) Cross-activation assay of the compounds of Examples 1 to 134 against human PPAR α was carried out using a DNA construct of PPAR α including its ligand binding domain and GAL4 DNA binding domain (Sher et al., Biochemistry 32, 5598-5604, 1993) to analyze whether any of the compounds binds to the ligand binding domain of PPAR α expressed by the construct to affect the PPAR α activity. When the GAL4 DNA binding domainm which is fused with PPAR α ligand binding domain, binds to UAS (upstream activation sequence) of firefly-luciferase, the luciferase is expressed. Therefore, the effect of each of the compounds of Examples on PPAR α activation can be evaluated by analyzing the activation of luciferase.
(§3) Specifically, 2×10^4 of HepG2 (ATCC HB-8065) or 293T cells (ATCC CRL-1573) were aliquotted into each well of a 96-well plate and cultured for overnight at 37° C. in a CO2 incubator (culture condition: DMEM, 10% FBS and 1% antibiotics).
(§4) The transformation of PPAR α DNA was traced as follows. First, a mixture of the following ingredients in amounts per well; Solution A (Promega) containing 50 ng of full length human PPAR α DNA, 50 ng of firefly-luciferase construct, 5 ng of Renilla-luciferase construct, 1.0 μl of PLUS™ reagent, and 8.3 μl of a serum-free medium containing no antibiotics; was prepared and kept at room temperature for 15 min. Solution B, which contained 0.5 μl of Lipofectamine™ reagent and 9.5 μl of serum-free medium without antibiotics per well, and Solution C, which contained 50 μl of serum-free medium per well), were prepared. Solutions A, B and C were mixed together to prepare lipofectamin-DNA complex, and the mixture was kept at room temperature for 15 min. Single layer of cells on each well of a 96-well plate were washed with serum-free DMEM, 70 μl of lipofectamine-DNA complex prepared above was added thereto, the plate was incubated at 37° C. in a 5% CO2 incubator for 3 hours to transform the cells, and […] of a diluted solution of each of the compounds of Examples 1 to 134 per well was added to each well to a final concentration 25 μM, and incubated at 37° C. in a CO2 incubator for 48 hours. Then, the medium was removed, 50 μl of passive lysis buffer (Promega) was added thereto, and the plate was shook at room temperature for 20 min to lysis cells. 40 μl of Luciferase Assay reagent of Dual Luciferase Kit […] per 20 μl of cell lysis buffer was added to the plate, followed by reacting at 20° C. for 8 seconds, and 40 μl of Stop & Glo reagent (Promega) as a stop solution was added thereto to quench the reaction. The luminescence intensities of F-luciferase and R-luciferase were measured with MicroLumat Plus (Berthord Technology).

human PPAR α [2] = molecular target: T1, human PPAR α; test: Exogeneous PPAR α agonist assay (GAL4 DNA binding domain/PPAR α ligand binding domain, luciferase) in HepG2 cells; type: cell-based; settings: 25 μM compound, 48 hours, luciferase activity increase relative to the control
Experimental: as §1, §2, §3, §4

Row | SMILES | Activity at 25 μM Step 1 293T cell (human PPAR α [1]) | Activity at 25 μM Step 1 HepG2 cell (human PPAR α [2])
1 | Cc1oc(-c2ccc(C(F)(F)F)cc2)nc1CCOc1cccc(CN(CC(=O)O)S(=O)(=O)N(C)C(C)C)c1 [Example 68, [N—(N-isopropyl-N-methylanmo)sulfonyl-N-[3-[2-[2-(4-trifluoromethylphenyl)-5-methyloxazol-4-yl]ethoxy]benzyl]amino]acetic acid] | 2 | 11
2 | CN(C)S(=O)(=O)N(CC(=O)O)Cc1ccc(OCCc2coc(-c3ccccc3)n2)cc1 [Example 132, [N—(N,N-dimethylamino)sulfonyl-N-[4-[(2-phenyloxazol-4-yl)ethoxy]benzyl]amino]acetic acid] | 5 | 32
3 | Cc1ccc(-c2nc(COc3cccc(CN([C@H](C(=O)O)C(C)C)S(N)(=O)=O)c3)c(C)o2)cc1 [Example 2, (S)-3-methyl-2-[N-(sulfamoyl)-N-[3-[(5-methyl-2-p-tolyloxazol-4-yl)methoxy]benzyl]amino]butyric acid] | 6 | 25
4 | CCN(c1cccc(C)c1)S(=O)(=O)N(CC(=O)O)Cc1cccc(OCCc2nc(-c3ccc(C(F)(F)F)cc3)oc2C)c1 [Example 80, [N—(N-ethyl-N-m-tolylamino)sulfonyl-N-[3-[2-[2-(4-trifluoromethylphenyl)-5-methyloxazol-4-yl]ethoxy]benzyl]amino]acetic acid] | 5 | 30
5 | COc1ccc(N(C)S(=O)(=O)N(CC(=O)O)Cc2cccc(OCc3nc(-c4ccc(C(F)(F)F)cc4)oc3C)c2)cc1 [Example 22] | 4 | 49
6 | Cc1oc(-c2ccccc2)nc1CCOc1cccc(CN(CC(=O)O)S(=O)(=O)N2CCCc3ccccc32)c1 [Example 94, [N-(1,2,3,4-tetrahydroquinolinyl)sulfonyl-N-[3-[2-(2-phenyl-5-methyloxazol-4-yl)ethoxy]benzyl]amino]acetic acid] | 2 | 
7 | Cc1oc(-c2ccccc2)nc1COc1cccc(CN(CC(=O)O)S(=O)(=O)N(C)c2ccccc2)c1 [Example 14, [N—[(N-methyl-N-phenyl)amino]sulfonyl-N-[3-[(2-phenyl-5-methyloxazol-4-yl)methoxy]benzyl]amino]acetic acid] | 2 | 
8 | Cc1oc(-c2ccc(C(F)(F)F)cc2)nc1CCOc1cccc(CN(CC(=O)O)S(=O)(=O)N2CCOCC2)c1 [Example 87, [N-(morpholinyl)sulfonyl-N-[3-[2-[2-(4-trifluoromethylphenyl)-5-methyloxazol-4-yl]ethoxy]benzyl]amino]acetic acid] | 1 | 
9 | Cc1ccc(-c2nc(CCOc3cccc(CN(CC(=O)O)S(=O)(=O)N4CCCC4)c3)c(C)o2)cc1 [Example 84, [N-(pyrrolidinyl)sulfonyl-N-[3-[2-[2-(4-methylphenyl)-5-methyloxazol-4-yl]ethoxy]benzyl]amino]acetic acid] | 1 | 
10 | Cc1oc(-c2ccccc2)nc1CCOc1ccc(CN(CC(=O)O)S(=O)(=O)N(C)C)cc1 [Example 98, [N—(N,N-dimethylamino)sulfonyl-N-[4-[2-(2-phenyl-5-methyloxazol-4-yl)ethoxy]benzyl]amino]acetic acid] | 1 | 
11 | Cc1oc(-c2cccs2)nc1CCOc1ccc(CN(CC(=O)O)S(=O)(=O)N(C)c2ccc(Cl)cc2)cc1 [Example 115, [N—[[N-methyl-N-(4-chlorophenyl)]amino]sulfonyl-N-[4-[2-[2-(thiophen-2-yl)-5-methyloxazol-4-yl]ethoxy]benzyl]amino]acetic acid] | 2 | 
12 | Cc1oc(-c2cccs2)nc1CCOc1cccc(CN(CC(=O)O)S(=O)(=O)N(C)C)c1 [Example 72, [N—(N,N-dimethylamino)sulfonyl-N-[3-[2-[2-(thiophen-2-yl)-5-methyloxazol-4-yl]ethoxy]benzyl]amino]acetic acid] | 2 | 
13 | Cc1oc(-c2ccc(C(F)(F)F)cc2)nc1COc1cccc(CN(CC(=O)O)S(=O)(=O)N2CCN(C)CC2)c1 [Example 27, [N-(4-methyl-1-piperazinyl)sulfonyl-N-[3-[[2-(4-trifluoromethylphenyl)-5-methyloxazol-4-yl]methoxy]benzyl]amino]acetic acid] | 1 | 
14 | Cc1ccc(-c2nc(COc3ccc(CN(CC(=O)O)S(=O)(=O)N(C)C)cc3)c(C)o2)cc1 [Example 39, [N—(N,N-dimethylamino)sulfonyl-N-[4-[[2-(4-methylphenyl)-5-methyloxazol-4-yl]methoxy]benzyl]amino]acetic acid] | 2 | 
15 | Cc1ccc(-c2nc(COc3cccc(CN(CC(=O)O)S(=O)(=O)N4CCc5ccccc54)c3)c(C)o2)cc1 [Example 31, [N-(indolinyl)sulfonyl-N-[3-[[2-(4-methylphenyl)-5-methyloxazol-4-yl]methoxy]benzyl]amino]acetic acid] | 3 | 
16 | Cc1oc(-c2ccccc2)nc1CCOc1ccc(CN(CC(=O)O)S(=O)(=O)N(C)c2ccccc2)cc1 [Example 105, [N—[(N-methyl-N-phenyl)amino]sulfonyl-N-[4-[2-(2-phenyl-5-methyloxazol-4-yl)ethoxy]benzyl]amino]acetic acid] | 2 | 
17 | Cc1oc(-c2cccs2)nc1COc1ccc(CN(CC(=O)O)S(=O)(=O)N(C)c2ccccc2)cc1 [Example 48, [N—[(N-methyl-N-phenyl)amino]sulfonyl-N-[4-[[2-(thiophen-2-yl)-5-methyloxazol-4-yl]methoxy]benzyl]amino]acetic acid] | 2 | 
18 | Cc1ccc(-c2nc(CCOc3ccc(CN(CC(=O)O)S(=O)(=O)N(C)c4ccccc4)cc3)c(C)o2)cc1 [Example 106, [N—[(N-methyl-N-phenyl)amino]sulfonyl-N-[4-[2-[2-(4-methylphenyl)-5-methyloxazol-4-yl]ethoxy]benzyl]amino]acetic acid] | 2 | 
19 | Cc1nc(-c2ccc(C(F)(F)F)cc2)oc1COc1cccc(CN(CC(=O)O)S(=O)(=O)N(C)C)c1 [Example 13, [N—(N,N-dimethylamino)sulfonyl-N-[3-[[2-(4-trifluoromethylphenyl)-4-methyloxazol-5-yl]methoxy]benzyl]amino]acetic acid] | 2 | 
20 | Cc1ccc(-c2nc(COc3ccc(CN(CC(=O)O)S(=O)(=O)N4CCOCC4)cc3)c(C)o2)cc1 [Example 44, [N-(morpholinyl)sulfonyl-N-[4-[[2-(4-methylphenyl)-5-methyloxazol-4-yl]methoxy]benzyl]amino]acetic acid] | 3 | 
21 | Cc1ccc(-c2nc(COc3ccc(CN(CC(=O)O)S(=O)(=O)N(C)c4ccc(Cl)cc4)cc3)c(C)o2)cc1 [Example 50, [N—[[N-methyl-N-(4-chlorophenyl)]amino]sulfonyl-N-[4-[[2-(4-methylphenyl)-5-methyloxazol-4-yl]methoxy]benzyl]amino]acetic acid] | 2 | 
22 | Cc1oc(-c2ccccc2)nc1CCOc1cccc(CN(CC(=O)O)S(=O)(=O)N(C)C)c1 [Example 61, [N—(N,N-dimethylamino)sulfonyl-N-[3-[2-(2-phenyl-5-methyloxazol-4-yl)ethoxy]benzyl]amino]acetic acid] | 2 | 
23 | Cc1oc(-c2ccc(C(F)(F)F)cc2)nc1COc1cccc(CN(CC(=O)O)S(=O)(=O)N2CCc3ccccc32)c1 [Example 32, [N-(indolinyl)sulfonyl-N-[3-[[2-(4-trifluoromethylphenyl)-5-methyloxazol-4-yl]methoxy]benzyl]amino]acetic acid] | 2 | 
